Data set [1] is described as follows: In vivo PK study, determination of brain-to-plasma ratio. The settings on record: mouse, SHK mice, PO dosing 5mg/kg, 20% water solution of HPβCD, read-out: brain-to-plasma concentration ratio. The procedure:
Male SHK mice (22-25 g) were dosed with 5 mg/kg of related compounds as a single injection via oral gavage (formulated in 20% water solution of HPβCD). Blood samples and whole brains were collected from three mice at each of eight collection time points of 0.05, 0.25, 0.5, 1, 2, 4, 8 and 24 h post dose. Plasma was collected from blood samples, and whole brain samples were homogenized in three volumes of water. Both tissues were analyzed for concentrations of related compounds by liquid chromatography-mass spectrometry (LC-MS/MS). Table 9. brain-to-plasma concentration ratios in SHK mice after PO dosing 5mg/kg for several selected examples

Another data set concerns the target VEGFR-2 (Homo sapiens, UniProt P35968). In words: Kinase inhibition assay (ELISA). The class given is biochemical. The following applies: 1.5 µM ATP. Here is the method:
(§1) To determine the interaction of our compounds with tyrosine kinases: PDGFR-α, cKIT, PDGFR-β, VEGFR-2 we used enzyme-linked immunosorbent assay (ELISA).
(§2) Determination plates preparation: The plates are processed by neutravidine for 2 h at 30°C. After washing thrice with TBS/0.1% Tween-20 and blocking with 1% BSA/TBS for 1 h at room temperature (RT) 96-well microtiter plates were washed thrice with TBS/0.1% Tween-20 again.
(§3) Reaction: After addition test compounds (in DMSO, DMSO final concentration - 5%) to reaction buffer (20 mM HEPES, pH 7.5, 15 mM MgCl2, 3 mM MnCl2, 2 mM DTT, 0.2 mM Na3VO4, 0.005% Triton X-100; PDGFR-α,: 0.05 µg/ml, 0.5 µg/ml Poly(G,T)-biotin; PDGFR-β: 0.05 µg/ml, 1 µg/ml Poly(G,T)-biotin; c-KIT: 0.03 µg/ml, 0.15 µg/ml Poly(G,T)-biotin; VEGFR-2: 0.07 µg/ml, 0.05 µg/ml Poly(G,T)-biotin) and preincubation of reaction for 10 min at RT and intensive agitation, ATP solution (PDGFR-α, - 1 µM, PDGFR-β - 0.5 µM, c-KIT - 60 µM, VEGFR-2: - 1.5 µM ATP in reaction buffer per well) was added to initiate reaction. Following incubation of mixture for 1 h at 30°C and intensive agitation the reaction was stopped by stop solution (20 mM HEPES, pH 7.5, 50 mM EDTA).
(§4) Kinase activity determination: The reaction mixture was transferred to determination plate. After mix incubation for 1 h at RT and intensive agitation the plates were washed thrice with TBS/0.1% Tween-20. Following mouse monoclonal 0.05 µg/ml Anti-p-Tyr (PY20) HRP antibodies (Santa Cruz Biotechnology) in PBS/BSA were added for 1 h at RT and intensive agitation. After washing, antibody binding was detected by tetramethylbenzidine (TMB) color development (Sigma). Measurement of A450 nm was carried out after addition of H2SO4
(ELISA stands for enzyme-linked immunosorbent assay.)

In another data set the target is cKIT (Homo sapiens, UniProt P10721). In words: Kinase inhibition assay (ELISA). The format is biochemical. The settings on record: 60 µM ATP. Here is the method: as §1, §2, §3, §4
Another data set addresses PDGFR-α (Homo sapiens, UniProt P16234). In words: Kinase inhibition assay (ELISA). The format is biochemical. The following applies: 1 µM ATP. The procedure:
as §1, §2, §3, §4

A further data set concerns A172. As to the kind of experiment: MTT proliferation / cytotoxicity assay. The format is cell-based, human. The following applies: Homo sapiens, A 172, 72 h, glioblastoma cell line. Here is the method: (§5) Cell culture. The human cancer cell lines A172, A375, A2780 and U251 were purchased from the American Type Culture Collection. All cells were routinely maintained in DMEM containing 10% fetal bovine serum (Omega Scientific), at 37°C in 5% C02.
(§6) Proliferation assay Inhibition of cell A172, A375, A2780 and U251 cell proliferation was assessed by a MTT assay (MTT = Thiazolyl Blue Tetrazolium Bromide) . Cells were inoculated into 96-well microtiter plates containing 0.5% fetal calf serum and incubated at 37°C, 5% CO2, 95% air, and 100% relative humidity for 24 h prior to addition of testing compounds. Following compounds addition, the plates were incubated for an additional 72 h before processing to measure the cell population. Each compound was tested at eight different concentrations in triplicate, as was a control sample. Growth inhibition of 50% (IC50) is calculated by analysis of the data in Prizm3.4 software.
(§7) Table 8 lists IC50 values for inhibition of growth of several cancer cell lines, including the glioblastoma cell lines A172 and U251, measured in a MTT cytotoxicity assay. Table 8. Data of cytotoxicity assay (MTT) for several cancer cell lines, IC50 [µM]

The subject of a further data set is A2780. In words: MTT proliferation / cytotoxicity assay. The class given is cell-based, human. The following applies: Homo sapiens, A2780, 72 h. The procedure: as §5, §6, §7
For a further data set, the system named is U251. As to the kind of experiment: MTT proliferation / cytotoxicity assay. The class given is cell-based, human. The following applies: Homo sapiens, U-251, 72 h, glioblastoma cell line. Here is the method:
as §5, §6, §7

The test system of another data set is A375. In words: MTT proliferation / cytotoxicity assay. The format is cell-based, human. The settings on record: Homo sapiens, A-375, 72 h. The procedure: as §5, §6, §7

SMILES strings stand for the structures. Where two headings read alike, the source gives them in different places.

For 13 compounds, Kp and IC50 results are on record in patent EP2719696A1, “NOVEL KINASE INHIBITORS” (Asinex Limited, priority 2011, dated 2012).

Usually IC50 stands for the concentration needed to halve the response being measured. Higher therefore signals lower potency.

Sequence of PDGFR-α (P16234 24-1089, species assumed): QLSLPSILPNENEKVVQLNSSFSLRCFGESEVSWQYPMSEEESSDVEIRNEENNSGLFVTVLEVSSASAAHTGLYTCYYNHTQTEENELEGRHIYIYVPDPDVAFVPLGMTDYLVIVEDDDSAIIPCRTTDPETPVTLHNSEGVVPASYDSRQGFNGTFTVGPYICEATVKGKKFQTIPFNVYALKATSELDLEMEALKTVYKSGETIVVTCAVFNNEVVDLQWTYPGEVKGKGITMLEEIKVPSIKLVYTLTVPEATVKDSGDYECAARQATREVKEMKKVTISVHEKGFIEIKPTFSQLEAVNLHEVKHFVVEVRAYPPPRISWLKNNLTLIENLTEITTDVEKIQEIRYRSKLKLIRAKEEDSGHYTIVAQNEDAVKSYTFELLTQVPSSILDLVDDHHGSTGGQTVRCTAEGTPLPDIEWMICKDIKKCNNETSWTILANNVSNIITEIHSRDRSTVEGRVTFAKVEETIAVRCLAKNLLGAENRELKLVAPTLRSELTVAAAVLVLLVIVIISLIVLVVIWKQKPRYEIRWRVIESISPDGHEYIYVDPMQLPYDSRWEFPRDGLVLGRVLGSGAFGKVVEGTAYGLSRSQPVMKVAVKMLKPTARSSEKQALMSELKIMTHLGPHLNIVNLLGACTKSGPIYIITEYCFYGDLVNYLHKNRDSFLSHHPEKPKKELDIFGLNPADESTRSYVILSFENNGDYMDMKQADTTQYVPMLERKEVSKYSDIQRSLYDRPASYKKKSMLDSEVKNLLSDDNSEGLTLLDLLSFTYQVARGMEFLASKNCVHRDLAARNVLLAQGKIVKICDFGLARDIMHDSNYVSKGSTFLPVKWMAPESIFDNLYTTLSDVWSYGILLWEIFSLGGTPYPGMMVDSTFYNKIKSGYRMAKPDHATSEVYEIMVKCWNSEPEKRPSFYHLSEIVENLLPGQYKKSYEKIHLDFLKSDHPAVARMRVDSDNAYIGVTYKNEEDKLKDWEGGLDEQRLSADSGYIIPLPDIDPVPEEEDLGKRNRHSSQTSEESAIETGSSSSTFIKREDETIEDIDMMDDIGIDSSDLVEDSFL
Sequence of VEGFR-2 (P35968 20-1356, species assumed): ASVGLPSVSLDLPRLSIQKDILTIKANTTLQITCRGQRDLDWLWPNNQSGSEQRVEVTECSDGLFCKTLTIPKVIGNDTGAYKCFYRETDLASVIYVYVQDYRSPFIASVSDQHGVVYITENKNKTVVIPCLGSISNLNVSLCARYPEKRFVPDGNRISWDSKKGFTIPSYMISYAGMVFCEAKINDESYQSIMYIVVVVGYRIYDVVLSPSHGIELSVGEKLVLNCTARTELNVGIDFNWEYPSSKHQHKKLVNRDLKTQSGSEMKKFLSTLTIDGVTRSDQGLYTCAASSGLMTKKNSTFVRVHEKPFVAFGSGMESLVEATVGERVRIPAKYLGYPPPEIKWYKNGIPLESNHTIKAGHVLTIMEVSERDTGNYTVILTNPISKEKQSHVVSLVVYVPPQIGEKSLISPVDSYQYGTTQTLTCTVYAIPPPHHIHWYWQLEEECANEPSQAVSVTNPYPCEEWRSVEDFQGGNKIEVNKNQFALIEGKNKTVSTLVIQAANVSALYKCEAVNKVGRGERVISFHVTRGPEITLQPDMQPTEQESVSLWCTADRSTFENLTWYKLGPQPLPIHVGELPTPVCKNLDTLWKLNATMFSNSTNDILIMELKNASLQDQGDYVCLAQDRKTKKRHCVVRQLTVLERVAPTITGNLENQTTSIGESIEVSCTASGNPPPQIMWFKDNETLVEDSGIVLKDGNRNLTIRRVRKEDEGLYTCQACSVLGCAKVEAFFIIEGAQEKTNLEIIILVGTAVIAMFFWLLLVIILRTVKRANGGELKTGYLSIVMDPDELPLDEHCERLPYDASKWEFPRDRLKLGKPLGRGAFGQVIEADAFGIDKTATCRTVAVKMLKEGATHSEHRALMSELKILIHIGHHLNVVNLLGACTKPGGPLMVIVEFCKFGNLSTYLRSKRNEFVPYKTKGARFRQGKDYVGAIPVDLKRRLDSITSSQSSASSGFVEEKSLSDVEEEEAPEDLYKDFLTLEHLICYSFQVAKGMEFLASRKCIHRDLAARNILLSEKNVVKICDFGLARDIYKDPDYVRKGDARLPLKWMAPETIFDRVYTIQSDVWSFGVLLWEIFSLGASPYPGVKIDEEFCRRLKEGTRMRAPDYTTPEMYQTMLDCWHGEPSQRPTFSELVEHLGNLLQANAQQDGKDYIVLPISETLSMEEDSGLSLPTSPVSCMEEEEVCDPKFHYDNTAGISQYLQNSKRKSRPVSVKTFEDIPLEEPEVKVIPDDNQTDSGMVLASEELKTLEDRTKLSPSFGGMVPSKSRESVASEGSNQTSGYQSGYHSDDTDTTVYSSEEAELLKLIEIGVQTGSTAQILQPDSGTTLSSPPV
Sequence of cKIT (P10721 26-976): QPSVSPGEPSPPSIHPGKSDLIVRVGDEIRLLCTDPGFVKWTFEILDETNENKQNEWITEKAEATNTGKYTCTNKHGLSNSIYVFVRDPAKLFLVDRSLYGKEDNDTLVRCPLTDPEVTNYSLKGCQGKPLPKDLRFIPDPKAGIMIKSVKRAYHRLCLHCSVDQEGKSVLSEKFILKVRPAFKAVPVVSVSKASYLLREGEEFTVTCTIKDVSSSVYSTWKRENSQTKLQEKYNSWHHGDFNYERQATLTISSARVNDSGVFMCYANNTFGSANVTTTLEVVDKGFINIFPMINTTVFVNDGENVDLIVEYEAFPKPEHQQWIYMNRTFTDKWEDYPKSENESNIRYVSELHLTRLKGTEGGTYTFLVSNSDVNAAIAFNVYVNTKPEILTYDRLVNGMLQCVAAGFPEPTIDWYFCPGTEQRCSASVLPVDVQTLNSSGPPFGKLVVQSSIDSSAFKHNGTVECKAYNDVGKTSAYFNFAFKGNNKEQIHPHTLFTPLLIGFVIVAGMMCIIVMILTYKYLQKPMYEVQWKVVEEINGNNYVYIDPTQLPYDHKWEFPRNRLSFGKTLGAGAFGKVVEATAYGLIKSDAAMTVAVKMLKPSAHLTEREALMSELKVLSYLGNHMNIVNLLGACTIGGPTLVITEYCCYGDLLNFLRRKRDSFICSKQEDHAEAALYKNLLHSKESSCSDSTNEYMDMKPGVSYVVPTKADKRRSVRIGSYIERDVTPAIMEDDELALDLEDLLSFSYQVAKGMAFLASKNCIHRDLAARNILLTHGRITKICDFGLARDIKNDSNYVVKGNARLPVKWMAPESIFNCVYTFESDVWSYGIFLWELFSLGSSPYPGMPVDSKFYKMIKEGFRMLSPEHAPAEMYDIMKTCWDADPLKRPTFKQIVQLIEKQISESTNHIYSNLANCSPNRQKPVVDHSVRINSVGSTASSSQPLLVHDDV

With `OCC(O)CN1CCC(c2ccnc(Nc3ncc(-c4ccc(F)cc4)s3)c2)CC1` (stereo not drawn) [Example 034, 3-{2'-[5-(4-Fluoro-phenyl)-thiazol-2-ylamino]-3,4,5,6-tetrahydro-2H-[4,4']bipyridinyl-1-yl}-propane-1,2-diol], in data set [1] (male, brain/plasma), the Kp was found to be 1.79. For the same compound, the IC50 was above 10 nM against VEGFR-2; below 10 nM against cKIT; below 10 nM against PDGFR-α; above 1 µM in the data set with A172; above 10 µM with A2780.
Take `OCCN1CCC(c2ccnc(Nc3ncc(CC(F)(F)F)s3)c2)CC1` [Example 040, 2-{2'-[5-(2,2,2-Trifluoro-ethyl)-thiazol-2-ylamino]-3,4,5,6-tetrahydro-2H-[4,4']bipyridinyl-1-yl}-ethanol]: the Kp in data set [1] (male, brain/plasma) was found to be 1.38. For the same compound, the IC50 on VEGFR-2 was above 100 nM; against cKIT it was above 100 nM; against PDGFR-α, above 100 nM; in the data set on A172, at most 1 µM; in the data set with U251, above 10 µM; with A2780 it was above 10 µM. In the data set on A375, this compound had an IC50 above 1 µM.
Take `O=C(Nc1ccccc1Cl)c1cnc(Nc2cc(C3CCN(CCO)CC3)ccn2)s1` [Example 044, 2-[1'-{2-Hydroxy-ethyl)-1',2',3',4',5',6' -hexahydro-[4,4']bipyridinyl-2-ylamino]-thiazole-5-carboxylic acid (2-chlorophenyl)-amide]: the Kp in data set [1] (male, brain/plasma) was found to be 0.19. Also, the IC50 was above 100 nM at VEGFR-2, above 10 nM against cKIT, below 10 nM against PDGFR-α and above 1 µM with A375.
As to `Fc1ccc(-c2cnc(Nc3cccc(CC4CNCCOC4)n3)s2)cc1` (stereo not drawn) [Example 013, [5-(4-Fluoro-phenyl)-thiazol-2-yl]-(6-[1,4]oxazepan-6-ylmethyl-pyridin-2-yl)-amine], the Kp in data set [1] (male, brain/plasma) was 0.59. Moreover, the IC50 on VEGFR-2 is above 1000 nM; at cKIT it was above 10 nM; against PDGFR-α, above 100 nM; with A172, above 1 µM; in the data set with U251, above 1 µM; in the data set with A2780 it was below 1 µM. The compound also showed an IC50 in the data set with A375 of at most 1 µM.
As to `OCCN1CCC(Cc2ccnc(Nc3ncc(-c4ccc(F)cc4)s3)c2)CC1` [Example 003, 2-(4-{2-[5-(4-Fluoro-phenyl)-thiazol-2-ylamino]-pyridin-4-ylmethyl}-piperidin-1-yl)-ethanol], the Kp in data set [1] (male, brain/plasma) stood at 3.66. Moreover, the IC50 on VEGFR-2 is above 10 nM; against cKIT, above 10 nM; on PDGFR-α it was below 10 nM; in the data set on A172, at most 1 µM; in the data set on U251 it was above 10 µM; with A2780, above 1 µM. In the data set on A375, this compound yielded an IC50 above 1 µM.
On to `Fc1ccc(-c2cnc(Nc3cc(CC4CNCCNC4)ccn3)s2)cc1` [Example 019, (4-[1,4]Diazepan-6-ylmethyl-pyridin-2-yl)-[5-(4-fluoro-phenyl)-thiazol-2-yl]-amine], for which, in data set [1] (male, brain/plasma), the Kp worked out at 0.96. For the same compound, the IC50 against VEGFR-2 was above 10 nM; at cKIT, below 10 nM; against PDGFR-α, below 10 nM; in the data set with A172, above 10 µM; in the data set with U251, above 10 µM; in the data set on A2780 it was above 1 µM. Further, the IC50 in the data set on A375 was above 1 µM.
Regarding `Fc1ccc(-c2cnc(Nc3cc(CC4CCCC5CNCC54)ccn3)s2)cc1` (stereo not drawn) [Example 017, [5-(4-Fluoro-phenyl)-thiazol-2-yl]-[4-(octahydro-isoindol-4-ylmethyl)-pyridin-2-yl]-amine], in data set [1] (male, brain/plasma), the Kp was 0.28. For the same compound, the IC50 is above 10 nM against VEGFR-2; below 10 nM against cKIT; below 10 nM at PDGFR-α; above 1 µM in the data set with A172; below 1 µM in the data set with A2780.
Take `OCCN1CCOCC(Cc2ccnc(Nc3ncc(-c4ccc(F)cc4)s3)c2)C1` (stereo not drawn) [Example 011, 2-(6-{2-[5-(4-Fluoro-phenyl)-thiazol-2-ylamino]-pyridin-4-ylmethyl}-[1,4]oxazepan-4-yl)-ethanol]: the Kp in data set [1] (male, brain/plasma) came out at 12.7. The IC50 was above 10 nM against VEGFR-2; above 10 nM on cKIT; below 10 nM on PDGFR-α; above 1 µM in the data set with A172; above 10 µM in the data set on U251; above 1 µM in the data set on A2780. Moreover, in the data set on A375, the IC50 was above 1 µM.
Take `Fc1ccc(-c2cnc(Nc3cc(CC4CNCCOC4)ccn3)s2)cc1` (stereo not drawn) [Example 009, [5-(4-Fluoro-phenyl)-thiazol-2-yl]-(4-[1,4]oxazepan-6-ylmethyl-pyridin-2-yl)-amine]: the Kp in data set [1] (male, brain/plasma) worked out at 10.3. The IC50 is above 10 nM at VEGFR-2; below 10 nM at cKIT; below 10 nM against PDGFR-α; above 10 µM in the data set on A172; above 10 µM in the data set on U251; above 1 µM in the data set with A2780. For the same compound, the IC50 with A375 is above 1 µM.
In the case of `COC(=O)C1CC(Cc2ccnc(Nc3ncc(-c4ccccc4)s3)c2)CC1N` (stereo not drawn) [Example 023, 2-Amino-4-[2-(5-phenyl-thiazol-2-ylamino)-pyridin-4-ylmethyl]-cyclopentanecar-boxylic acid methyl ester], the Kp in data set [1] (brain) came out at 0.78. In addition, the IC50 on VEGFR-2 was above 10 nM; at cKIT, below 10 nM; on PDGFR-α, below 10 nM; in the data set on A172, above 1 µM; in the data set with A2780, above 1 µM.
As for `OCCN1CCC(c2ccnc(Nc3ncc(-c4ccc(F)cc4)s3)c2)CC1` [Example 035], in data set [1] (brain), the Kp was 18.5. The IC50 was below 10 nM against VEGFR-2; below 10 nM against cKIT; below 10 nM against PDGFR-α; above 1 µM in the data set on A172; above 1 µM with U251; above 1 µM with A2780. Further, in the data set with A375, the IC50 is above 1 µM.
As to `Cc1nc(Nc2ncc(-c3ccccc3)s2)cc(C2CCN(CCO)CC2)n1` [Example 032, 2-{4-[2-Methyl-6-(5-phenyl-thiazol-2-ylamino)-pyrimidin-4-yl]-piperidin-1-yl}-ethanol], the Kp in data set [1] (male, brain/plasma) is 0.81. The IC50 is above 10 nM against VEGFR-2; above 10 nM against cKIT; below 10 nM on PDGFR-α; above 1 µM in the data set with A172; above 10 µM in the data set on U251; at most 1 µM in the data set on A2780.
As for `OCCN1CCC(c2cc(Nc3ncc(-c4ccccc4)s3)ccn2)CC1` [Example 033, 2-[4-(5-Phenyl-thiazol-2-ylamino)-3',4',5',6'-tetrahydro-2'H-[2,4']bipyridinyl-1'-yl]-ethanol], the IC50 was above 100 nM against VEGFR-2; above 100 nM on cKIT; above 10 nM at PDGFR-α; above 10 µM in the data set with A172; above 10 µM in the data set with U251; above 10 µM with A2780. The compound also had an IC50 with A375 above 10 µM.
